Experimental findings from patent US9034876B2, “Treatment of chronic inflammation with a 1,2,4-triazolo [1,5a] pyridine derivative” (Cephalon, Inc., priority 2010, dated 2015) are described below.

One assay concerns pSTAT3. As to the kind of experiment: Activity against pSTAT3 (another experiment).
The test system of assay [1] is collagen-induced arthritis (CIA). Nature of the assay: Collagen-induced arthritis (CIA) model, paw size and clinical score. Type of assay: in vivo, female DBA/1 mice. On the procedure: (§1) Female DBA/1 mice were injected with purified collagen type II in CFA i.d. (intradermal), then boosted with collagen type II in IFA, s.c., (subcutaneous) on day 21 followed by a day 28 LPS injection i.p. to induce arthritis (CIA). Mice that scored a ‘1’ or better for each paw were considered arthritic and entered into the study. Treatments started after 7-10 days of arthritis induction. Compound A was provided orally, b.i.d., for all doses tested; Dex was administered i.p. at 1.5 mg/kg, three times a week; and vehicle (PEG400+1% DMSO) was provided orally, b.i.d.
Compound A was then tested in a more physiologic and progressive disease model of RA (i.e., collagen-induced arthritis (CIA) model). […] Early model optimization studies consistently generated robust collagen-induced-arthritis phenotypes that were absent from control treated, non-diseased, animals. CIA arthritic animals were separated into groups and treated with Compound A at 30, 55 and 100 mg/kg doses b.i.d, p.o.; vehicle or the standard-of-care reference drug, Dex at 1.5 mg/kg, which were administered as described above. […] The faster onset of swelling reduction noted for the 100 mg/kg treatment group may be explained by differences in the mechanism of action of Compound A.
Acclimated mice were randomized and pre-bled and measured for baseline inflammation before any studies were initiated. On day 0, DBA/1 female mice were given a primary immunization with equal volumes of bovine type II collagen (CII), 2 mg/ml stock in 0.05 M acetic acid, (Chrondrex, Redmond, Wash.) suspended in CFA, 5 mg/ml (Chondrex, Redmond, Wash.) emulsion yielding an injection of 100 μg of CII at 100 μl into the base of the tail intradermally (i.d.). At day 21 post primary immunization, mice were re-challenged with CII emulsified in Incomplete Freund's Adjuvant (IFA) (Thermo Scientific, Rockford, Ill.) s.c. on the flank of the mouse. On day 28 each mouse received an i.p. injection of E. coli 0111:B4 LPS (0.5 mg/ml stock) (Chondrex, Redmond, Wash.) at 10 μg in 100 μl of saline (25-50 μg of LPS was reduced to 10 μg per mouse to reduce mortality associated with endotoxic shock). Around day 35 the mice begin to show signs of paw inflammation and disease. Before starting treatment mice were randomized, grouped, scored, ear tagged and pre-bled to determine baseline disease. […] Arthritis clinical scores were the same as that used to score the CAIA model (see CAIA methods). Vehicle consisted of PEG400 plus 1% DMSO given orally, twice daily (b.i.d). […] All samples were kept at −80° C. until ready to assay. At about day 60 mice were harvested for spleen, plasma and arthritic paws for STAT and cytokine quantitation and histological analysis.

The test system of assay [2] is JAK2 in irf-bla TF-1 cells. Nature of the assay: GeneBLAzer reporter assay in irf-bla TF-1 cells. Type of assay: cell-based. On the technique in general: A reporter such as luciferase makes a cellular process visible.
Protocol: The effect of Compound A in a cellular system was measured using irf-bla TF-1 cells (JAK2) and Ba/F3 (JAK3) cells. These cells were not tested for the presence of JAK1 and TYK2. IC50 values are reported as the average±standard deviation of at least 4 independent determinations.
In assay [3] the test system is collagen-antibody-induced arthritis (CAIA). As to the kind of experiment: Collagen-antibody-induced arthritis (CAIA) model, paw size and clinical score. The settings on record: 55 mg/kg p.o. b.i.d., day 13. Type of assay: in vivo, female DBA/1 mice.
Protocol: Female DBA/1 mice were injected i.v. (intravenous) with purified anti-collagen type II antibodies, then given 25 μg of LPS (lipopolysaccharide), i.p. (intraperitoneal), three days later to induce arthritis by day 5. Mice that met the arthritis criteria score of 1 per paw were entered into the study. Compound A was administered orally, b.i.d. (twice daily), for all doses tested; Dex (Dexamethasone) was administered at 1.5 mg/kg three times a week, i.p.; and vehicle (PEG400+1% DMSO) was administered orally.
Anti-collagen type II antibody was delivered to mice i.v. and oral administration of Compound A was initiated upon meeting minimum score requirements and entry into dosage groups. Compound A was administered at 10, 30 or 55 mg/kg p.o. twice daily for two weeks total. Vehicle groups were treated with PEG400 in 1% DMSO; dexamethasone (Dex) was used as a glucocorticoid standard of care reference. Dex was given i.p. in saline alone, three times a week (every 48 hours) at 1.5 mg/kg of total body mass.
Acclimated mice were randomized, pre-bled and measured for baseline inflammation before any studies were initiated. On day 0, DBA/1 female mice were injected i.v. with 100 μl of a saline solution containing 1.5 mg of a 10 mg/ml cocktail of arthritogenic monoclonal antibodies directed against different epitopes of collagen type II (Chondrex, Redmond, Wash.) suspended in saline. […]
For another assay, the system named is serum and paw cytokines. As to the kind of experiment: CIA model, serum and paw cytokines (Luminex bead assay). Format: in vivo, female DBA/1 mice. On the procedure:
as §1
FIGS. 4C-1 through 4C-4: Depict concentrations of various serum cytokines (IL-12, IL-2, IL-10 and TNFα) in arthritic paws in each treatment group.
Frozen plasma at −80° C. was thawed on ice, vortexed, then centrifuged for 10 minutes to remove debris and aggregates. A total of 25-50 μl of serum was used for Luminex® assays following the manufacturer's instruction. Ten different mouse cytokines were measured using the mouse cytokine 10-plex bead kit (Invitrogen, Carlsbad, Calif.). […]
A more detailed description of this method can be found described elsewhere (Lu et al, 2010, submitted for publication). […] Protein concentration was measured using a BCA protein assay (Pierce, Rockford, Ill.) and adjusted to 3 mg/ml. […]

Where [4] appears, read: CIA, 30, 55 and 100 mg/kg b.i.d. p.o.

As to `CN1CCN(c2cccc(Nc3nc4c(-c5ccc(S(C)(=O)=O)cc5)cccn4n3)c2)CC1` [Compound A, [8-(4-Methanesulfonyl-phenyl)-[1,2,4]triazolo[1,5-a]pyridin-2-yl]-[3-(4-methyl-piperazin-1-yl)-phenyl]-amine], the “activity against pSTAT3” value in the assay with pSTAT3 is on record as “exhibited some activity against pSTAT3”. Further, the “suppression of paw swelling versus Dex” value in assay [1] (CIA, 100 mg/kg) was “near identical suppression of paw swelling”. For the same molecule, in assay [1] (CIA, 100 mg/kg, day 43), the “onset of swelling reduction versus Dex” value is given as “more rapid drop in swelling as compared to the Dex treatment group”. In assay [1] (setting [4]), the clinical score entry is “reduction in clinical score in a dose-dependent manner” and the mean paw size result was “clear reduction in the mean paw size”. In assay [2], the “inhibition of JAK2, reporter assay” value is reported as “inhibits JAK2 in irf-bla TF-1 cells”. In assay [3], the “drop in mean paw thickness or size compared to vehicle” value is reported as 1.3 fold and the “reduction in total clinical score compared to vehicle” value came to 2.4 fold. Moreover, the “serum and paw cytokines (IL-12, IL-2, IL-10, TNFα, IL-4) and spleen IL-12” value in the assay with serum and paw cytokines (all three doses) is “decrease in several serum and paw cytokines”. In the assay on serum and paw cytokines (all three doses (30, 55, 100 mg/kg)), the “serum IL-12 level” value is “significantly decrease the level of IL-12 comparable to that observed with Dex”.
